The results in this text go back to patent US8999964B2, “TGR5 modulators and methods of use thereof” (Intercept Pharmaceuticals, Inc., priority 2008, dated 2015).

In one series the target is T1, CAR (Homo sapiens, UniProt Q14994).
T1 construct: purchased Invitrogen
T1 sequence (Q14994 109-352 limits assumed): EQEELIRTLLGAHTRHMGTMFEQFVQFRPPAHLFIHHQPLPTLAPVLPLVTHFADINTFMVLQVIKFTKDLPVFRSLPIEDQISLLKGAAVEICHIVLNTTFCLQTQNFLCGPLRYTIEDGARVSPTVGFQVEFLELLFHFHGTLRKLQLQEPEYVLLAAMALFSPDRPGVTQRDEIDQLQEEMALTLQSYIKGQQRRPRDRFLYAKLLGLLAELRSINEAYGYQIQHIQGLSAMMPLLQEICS
Description: CAR coactivator recruitment (Lanthascreen). It counts as biochemical. The settings on record: Table 6; coactivator recruitment (Lanthascreen). A general note: TR-FRET usually uses a lanthanide donor and a delayed reading to cut background.

Another series has as its target T2, VDR (Homo sapiens, UniProt P11473).
T2 construct: purchased Invitrogen
T2 sequence (P11473 127-423 limits assumed): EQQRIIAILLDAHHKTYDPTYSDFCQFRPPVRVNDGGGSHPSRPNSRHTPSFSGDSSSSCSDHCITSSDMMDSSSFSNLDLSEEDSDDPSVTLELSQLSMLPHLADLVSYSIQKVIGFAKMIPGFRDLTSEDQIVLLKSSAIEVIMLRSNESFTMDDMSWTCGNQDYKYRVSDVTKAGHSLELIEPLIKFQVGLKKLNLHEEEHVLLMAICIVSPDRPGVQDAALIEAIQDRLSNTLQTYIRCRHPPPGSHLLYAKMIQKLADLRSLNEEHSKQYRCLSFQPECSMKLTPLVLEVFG
Put plainly: VDR activation, NR selectivity assay. It is filed as biochemical. To be noted: Table 6.

The next series has as its target T3, PXR (Homo sapiens, UniProt O75469).
T3 sequence (O75469 1-434): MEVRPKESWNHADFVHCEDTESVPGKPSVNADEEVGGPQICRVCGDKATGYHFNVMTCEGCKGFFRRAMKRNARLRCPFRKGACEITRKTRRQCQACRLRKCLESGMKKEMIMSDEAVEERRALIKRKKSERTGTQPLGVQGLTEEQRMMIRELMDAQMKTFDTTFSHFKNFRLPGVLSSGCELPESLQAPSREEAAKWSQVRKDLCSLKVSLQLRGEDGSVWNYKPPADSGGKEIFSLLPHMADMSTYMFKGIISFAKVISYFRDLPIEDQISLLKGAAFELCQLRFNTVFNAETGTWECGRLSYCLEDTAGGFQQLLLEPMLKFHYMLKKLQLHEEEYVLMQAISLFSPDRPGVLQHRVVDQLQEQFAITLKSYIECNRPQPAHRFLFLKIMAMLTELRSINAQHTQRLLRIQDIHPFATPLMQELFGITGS
Put plainly: PXR ligands competition assay (binding assay). The settings on record: Table 6.

Series [1] in a line: 1-Octanol/water partition coefficient (shake-flask). To be noted: bile acids as ionized species, pH 8.
Description: The octanol/water partition coefficient was measured for molecules in their ionized form and therefore the carboxy analogues were studied at a relatively high pH (8 to 9) to ensure full ionization of the carboxyl group. The 1-Octanol/water partition coefficient (log P) was evaluated using a conventional shake-flask procedure. […] The aqueous buffer was previously pre-saturated with 1-octanol, 5 ml of 1-octanol pre-saturated with water was then added and the samples were left to equilibrate for 2 weeks under continuous stirring at room temperature. After centrifugation the two phases were carefully separated. […] The flow rate was 150 μal/min and the column was maintained at 45° C.
The target of series [2] is T4, hTGR5 (Homo sapiens, UniProt Q8TDU6).
T4 sequence (Q8TDU6 1-330): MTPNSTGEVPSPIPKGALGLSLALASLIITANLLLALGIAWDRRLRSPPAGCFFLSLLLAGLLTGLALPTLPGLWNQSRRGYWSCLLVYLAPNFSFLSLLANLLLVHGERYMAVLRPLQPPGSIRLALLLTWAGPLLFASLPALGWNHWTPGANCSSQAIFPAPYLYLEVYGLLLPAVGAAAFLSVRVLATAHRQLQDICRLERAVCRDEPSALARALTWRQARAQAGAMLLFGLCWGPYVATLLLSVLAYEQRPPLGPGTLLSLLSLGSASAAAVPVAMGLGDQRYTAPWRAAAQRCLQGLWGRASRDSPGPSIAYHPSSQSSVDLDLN
Put plainly: FRET-cAMP on TGR5 overexpressing Hek293 cells. It is filed as cell-based. Set-up: Human intestinal cell lines (NCI-H716) were plated in 96-well plates; endogenous in cells.

Series [3] concerns the target T4, hTGR5. Description: cell-based. The settings on record: Table 1; CRE-Luc reporter, HEK293T; read-out: Transactivation Assay hTGR5 EC50. Set-up: Human intestinal cell lines (NCI-H716) were plated in 96-well plates; endogenous in cells.
Description: HEPG2 and HEK293T cells were cultured in E-MEM and DMEM respectively, either supplemented with 1% penicillin/streptomycin, 1% L-glutamine and 10% fetal bovine serum. […] Cells were grown at 37° C. in 5% CO2. All the transfections were made using 5:2 Fugene HD Trasfection reagent (μl) to DNA (μg) respectively (Roche). […] Transient transfections were performed using 100 ng of reporter vector pGL4.29[luc2P/CRE/Hygro] […] The pGEM vector was added to normalize the amounts of DNA transfected in each assay (2 μg). […] The cells were then lysed by adding 75 μl of Dual-Glo Luciferase Reagent (Promega) to 75 μl of medium containing cells/well. Renilla luciferase activity was measured by adding volume:volume of Dual-Glo Stop & Glo reagent and original culture medium. Luciferase activities were expressed as ratio between luciferase unit and renilla luciferase unit. Each data point is the average of triplicate assays. Each experiment was repeated at least three times.
After subtracting the average value of the basal (vehicle-treated) condition, values were applied to EC50 and/or efficacy determinations. Calculation of average EC50 and comparison of the EC50 between different compounds were done after transformation to logarithms.
Another series addresses T5, PPARδ (Homo sapiens, UniProt Q03181).
T5 sequence (Q03181 211-439 limits assumed): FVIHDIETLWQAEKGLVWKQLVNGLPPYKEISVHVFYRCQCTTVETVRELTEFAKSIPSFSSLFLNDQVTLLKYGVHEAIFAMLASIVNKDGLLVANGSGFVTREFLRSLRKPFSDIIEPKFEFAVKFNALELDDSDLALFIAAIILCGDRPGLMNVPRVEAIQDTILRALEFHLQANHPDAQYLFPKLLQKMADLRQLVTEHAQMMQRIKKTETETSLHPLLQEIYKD
Description: PPARδ activation, NR selectivity assay. To be noted: Table 6.

In another series the target is T6, hFXR (Homo sapiens, UniProt Q96RI1).
T6 sequence (Q96RI1 262-486 limits assumed): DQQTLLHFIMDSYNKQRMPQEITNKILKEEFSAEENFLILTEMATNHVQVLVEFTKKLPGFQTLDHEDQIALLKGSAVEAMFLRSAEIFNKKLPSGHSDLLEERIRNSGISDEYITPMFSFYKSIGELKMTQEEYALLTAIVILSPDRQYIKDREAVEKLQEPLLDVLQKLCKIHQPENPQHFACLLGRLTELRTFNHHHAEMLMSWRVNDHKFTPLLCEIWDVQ
Description: Alphascreen coactivator recruitment assay on FXR. A general note: Bead proximity is the source of the signal in Alpha formats.

Series [4] can be described thus: Critical micellar concentration by surface tension measurements. It is filed as physicochemical. On the procedure: The critical micellar concentration (CMC) was determined by surface tension (ST) measurements using a maximum bubble-pressure method which give surface tension values slightly affected by potential impurities […] static methods. […] The surface tension values were plotted against the logarithm of the bile salt concentration; the regression lines corresponding to the two parts of the curve (monomeric and micellar phases) were calculated using the method of least squares, and the intersection of the lines was taken as the CMC value. From the ST vs concentration curves the value of the surface tension at the CMC (equilibrium between monomers and multimers species) was also calculated giving information about the detergency power which is related to the size of the micelles with associate surface tension lowering capacity. The CMC was evaluated by surface tension measurements in non equilibrium conditions i.e. in conditions that impurities slightly affect the surface tension results (FIG. 6). […] The presence of a hydroxyl group in the C-16 beta position reduces the hydrophobic area responsible for back to back interaction, which is to form micelles and therefore, the micelles are small and poorly detergent. This property confers to the molecule a low toxicity when accumulated in a given biological fluid or organ.

Molecules are shown by their SMILES. Structures can show the parent of a compound that is named as a salt.

Description for hFXR: Activity on FXR was assayed by using Alphascreen technology in a coactivator recruitment assay. AlphaScreen is a bead-based chemistry assay used to study biomolecular interactions. Binding of molecules captured on the beads leads to an energy transfer from one bead to the other, ultimately producing a luminescent signal. When the partners interact, chemical energy is transferred from Donor to Acceptor beads and a signal is produced. Upon bile acids stimulation the GST-FXR-LBD interacts with the Src-1 peptide. Anti-GST-coated Acceptor beads were used to capture the GST-fusion FXR-LBD whereas the biotinylated-SRC-1 peptide was captured by the streptavidin Donor beads. Upon illumination at 680 nm chemical energy is transferred from Donor to Acceptor beads across the complex streptavidin-Donor/Src-1-Biotin/GSTFXR-LBD/Anti-GST-Acceptor and a signal is produced. The assay was performed in white, low-volume, 384-well Optiplates (PerkinElmer) using a final volume of 25 μl containing final concentrations of 10 nM of purified GST-tagged FXR-LBD protein, 30 nM biotinylated Src-1 peptide, 20 μg/ml anti-GST acceptor beads acceptor beads and 10 μg/ml of streptavidin donor bead (PerkinElmer). […] After the addition of the detection mix (acceptor and donor beads), the plates were incubated in the dark for 4 h at room temperature and then were read with an Envision microplate analyzer (PerkinElmer). […]

Regarding `CC[C@H]1[C@@H](O)[C@@H]2[C@H](CC[C@]3(C)[C@@H]([C@H](C)CCC(=O)O)[C@@H](O)C[C@@H]23)[C@@]2(C)CC[C@@H](O)C[C@@H]12` [Compound 10, 3α,7α,16β-trihydroxy-6α-ethyl-5β-cholan-24-oic acid sodium salt], the “CAR Activation EC50” value at CAR was “No activity”. Moreover, the “VDR Activation EC50” value on VDR is “No activity”. For the same molecule, the IC50 (usually the concentration at which inhibition is half-maximal) on PXR turned out to be 64 µM. Also, the “LogPA-: 1-octanol-water partition coefficient” value in [1] is listed as 1.6. The EC50 – broadly, the concentration giving half of the maximal effect – on hTGR5 [2] stood at 0.2 µM; at hTGR5 [3], 0.04 µM; at hFXR it was 12 µM. Also, the “PPARδ Activation EC50” value on PPARδ is given as “No activity”. For the same molecule, in series [4] (NaCl […]), the “Detergency (CMC and surface tension lowering capacity)” value is on record as “moderate detergent”. The “CMC […] Na+” value in series [4] ([…] NaCl water solution) stood at 5.9 mM. The “STCMC: Surface Tension at CMC” value in series [4] ([…] NaCl water solution) stood at 52.4 Dyne/cm.
